Measurements as given in patent US9040523B2, “Antifungal 5,6-dihydro-4H-pyrrolo[1,2-α][1,4]-benzodiazepines and 6H-pyrrolo[1,2-α][1,4]benzodiazepines substituted with benzene derivatives” (JANSSEN PHARMACEUTICA NV, priority 2010, dated 2015).
Each block holds one compound with its values, some of them ahead of it.

What was measured:
Cytochrome P450 1A2 = target: T1, Cytochrome P450 1A2 (Homo sapiens, UniProt P05177); assay: Human liver microsomal cytochrome P450 cocktail inhibition assay, Protocol C; conditions: human liver microsomes 0.2 mg/ml; probe phenacetin 80 microM
T1 sequence (P05177 1-516): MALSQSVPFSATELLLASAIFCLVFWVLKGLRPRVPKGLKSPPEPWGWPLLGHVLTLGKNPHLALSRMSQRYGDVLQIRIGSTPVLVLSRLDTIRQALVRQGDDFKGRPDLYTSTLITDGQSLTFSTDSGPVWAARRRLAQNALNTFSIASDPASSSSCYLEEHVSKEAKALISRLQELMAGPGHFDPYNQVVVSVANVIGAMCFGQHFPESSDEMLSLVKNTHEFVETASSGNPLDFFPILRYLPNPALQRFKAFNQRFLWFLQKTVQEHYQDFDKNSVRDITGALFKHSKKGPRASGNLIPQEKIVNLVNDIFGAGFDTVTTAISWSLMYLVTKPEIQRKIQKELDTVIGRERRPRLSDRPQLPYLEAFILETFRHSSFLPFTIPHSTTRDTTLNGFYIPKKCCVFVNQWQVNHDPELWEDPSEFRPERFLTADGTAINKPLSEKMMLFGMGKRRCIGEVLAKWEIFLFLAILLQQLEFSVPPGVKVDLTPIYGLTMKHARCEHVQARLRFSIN
Procedure: (§1) Probe substrates and final assay concentrations with the appropriate internal standard are outlined in Table 6a.
(§2) Assays were performed in 0.1 M phosphate buffer (pH 7.4), containing 0.2 mg/ml human liver microsomes (BD Gentest) and a probe substrate mix consisting of: phenacetin, tolbutamide, S-mephenyloin, dextromethorphan, amodiaquine and midazolam (Table 6a) and a range of test compound concentrations (0 to 30 micromolar) in a total volume of 100 microliters. After a 10 min pre-incubation at 37° C., the reaction was started with addition of NADPH at a final concentration of 1.0 mM. […] The samples are centrifuged for 10 min at 4° C. at 4000 rpm and 60 microliters supernatant is diluted with 180 microliters water. Each sample is injected onto a UPLC/MS system for the simultaneous measurement of the probe substrate metabolites and their associated deuterated internal standards. Percentage inhibition is calculated according to: %-inhibition=(1−Ri/R)*100, whereby Ri and R are the metabolite to internal standard peak area ratios in the presence and absence of inhibitor respectively.
(§3) Percentage inhibition data are plotted against the Log transformed test compound concentration and after curve fitting the IC50-value is determined.

Cytochrome P450 2C19 = Cytochrome P450 2C19 (Homo sapiens, UniProt P33261); assay: as above; conditions: 2C19_S-Meph pIC50, human liver microsomes 0.2 mg/ml; probe S-mephenytoin 30 microM
Procedure: as §1, §2, §3

Cytochrome P450 2D6 = Cytochrome P450 2D6 (Homo sapiens, UniProt P10635); assay: as above; conditions: 2D6_Dextro pIC50, human liver microsomes 0.2 mg/ml; probe dextromethorphan 3 microM
Procedure: as §1, §2, §3

Cytochrome P450 2C9 = Cytochrome P450 2C9 (Homo sapiens, UniProt P11712); assay: as above; conditions: 2C9 Tolbut pIC50, human liver microsomes 0.2 mg/ml; probe tolbutamide 100 microM
Procedure: as §1, §2, §3

Cytochrome P450 2C8 = target: T2, Cytochrome P450 2C8 (Homo sapiens, UniProt P10632); assay: as above; type: in vitro ADME; conditions: human liver microsomes 0.2 mg/ml; probe amodiaquine 2 microM
T2 construct: tissue BD Gentest; host or cells: human liver microsomes
T2 sequence (P10632 1-490): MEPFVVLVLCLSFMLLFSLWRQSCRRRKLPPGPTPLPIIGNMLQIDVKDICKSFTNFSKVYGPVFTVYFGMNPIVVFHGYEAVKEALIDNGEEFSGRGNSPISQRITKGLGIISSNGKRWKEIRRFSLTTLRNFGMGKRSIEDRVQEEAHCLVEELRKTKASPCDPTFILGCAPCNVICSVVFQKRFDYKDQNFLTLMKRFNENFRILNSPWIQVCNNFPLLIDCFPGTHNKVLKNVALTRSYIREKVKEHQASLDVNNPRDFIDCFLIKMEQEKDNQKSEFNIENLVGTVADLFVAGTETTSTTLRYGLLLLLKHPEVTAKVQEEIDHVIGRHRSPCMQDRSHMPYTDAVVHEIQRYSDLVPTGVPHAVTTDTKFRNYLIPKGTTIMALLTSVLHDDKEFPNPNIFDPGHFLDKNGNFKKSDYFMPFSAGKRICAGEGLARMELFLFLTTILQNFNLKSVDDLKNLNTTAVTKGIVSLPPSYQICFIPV
Procedure: as §1, §2, §3

CYP3A4/5 = CYP3A4/5 (Homo sapiens, UniProt P08684); assay: in vitro; conditions: liver microsomes, pH 7.4, probe midazolam (2 microM)
Procedure: as §1
After a 10 min pre-incubation at 37° C., the reaction was started with addition of NADPH at a final concentration of 1.0 mM. […] The samples are centrifuged for 10 min at 4° C. at 4000 rpm and 60 microliters supernatant is diluted with 180 microliters water. Each sample is injected onto a UPLC/MS system for the simultaneous measurement of the probe substrate metabolites and their associated deuterated internal standards.
as §3

[1] = system: Scedosporium prolificans IHEM21157; assay: Antifungal activity in vitro (resazurin susceptibility screen), Inf. I; type: cell-based; conditions: Lomentospora prolificans, 37 °C, 48 hours, resa time 17 hours, read-out: Inf. I pIC50 (converted)
Procedure: (§4) The standard susceptibility screen was performed in 96-well plates (U-bottom, Greiner Bio-One). […] These serial dilutions (10 n1) were then spotted onto test-plates that could be stored in the dark at 4° C. for a maximum period of 2 weeks. […] The different fungal species/isolates (Table 3a) were cryopreserved and 1/1000 diluted in medium just prior to use. A standard inoculum of 200 μl containing 10^3 colony-forming unit (cfu) was then added to each well. A positive control (100% growth=fungal culture without antifungal) and a negative control (0% growth ═RPMI-MOPS medium) were included on each plate. […] [table]

[2] = system: Sporothrix schenkii B62482; assay: Antifungal activity in vitro (resazurin susceptibility screen), Inf. A; type: cell-based; conditions: Sporothrix, B62482, Sporothrix schenkii B62482; 27 °C, 4 days, resa time 24 hours; highest in-test concentration 64 μM; read-out: Inf. A pIC50 (converted)
Procedure, shortened: (§5)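 Inoculum: 10^3 cfu/well from cryostocks diluted 1/1000 immediately prior to use. Drug plates were pre-spotted serial dilutions stored dark at 4 °C, ≤2 wk. Controls: fungus without antifungal (100%) and RPMI-MOPS blank (0%).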

[3] = system: Cryptococcus neoformans B66663; assay: Antifungal activity in vitro (resazurin susceptibility screen), Inf. F; type: cell-based; conditions: Cryptococcus neoformans, B66663, Cryptococcus neoformans B66663; 37 °C, 24 hours, resa time 4 hours; read-out: Inf. F pIC50 (converted)
Procedure, shortened: as §5

[4] = Liver metabolic stability assay, gpLM; type: in vitro ADME, guinea pig; conditions: guinea pig microsomes, 1 mg protein/ml, 5 μM test compound, 15 min, 37 °C
Procedure: (§6) Liver preparations (microsomal fractions) were obtained from BD Gentest (San Jose, Calif., US). Metabolic stability was assessed using the following assay conditions. […] The mixture was pre-incubated at 37° C. for 5 min and the enzymatic reaction was started by addition of 5 μM test compound. After 0 (control) and 15 minutes (min), the reactions were terminated by addition of […] (500 μl). The precipitated material was removed by centrifugation at 1200 g for 10 min. The supernatant was analysed by LC-MS/MS on a ThermoFinnigan LCQ Deca XP ion-trap mass spectrometer equipped with an atmospheric pressure chemical ionisation source. Calculation of %-compound remaining was as described by Kantharaj et al. 2003 ((Kantharaj E., Tuytelaars A, Proost P E A, Ongel Z, van […] (2003). Simultaneous measurement of drug metabolic stability and identification of metabolites using ion-trap mass spectrometry.

[5] = system: Trichophyton mentagrophytes B70554; assay: Antifungal activity in vitro (resazurin susceptibility screen), Inf. G; type: cell-based; conditions: Trichophyton mentagrophytes, B70554, Trichophyton mentagrophytes B70554; 27 °C, 7 days, resa time 24 hours; read-out: Inf. G pIC50 (converted)
Procedure, shortened: (§7)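 Each well was inoculated with 10^3 cfu of fungus onto dried, pre-spotted compound serial dilutions in RPMI-MOPS medium, with fungal growth read by resazurin. Growth was referenced to drug-free culture (100%) and medium-only (0%) controls on each plate.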

Rhizopus oryzae IHEM5223 = assay: Antifungal activity in vitro (resazurin susceptibility screen), Inf. J; type: cell-based; conditions: Rhizopus arrhizus, 37 °C, 24 hours, resa time 6 hours, read-out: Inf. J pIC50 (converted)
Procedure: as §4

[6] = system: Aspergillus fumigatus B42928; assay: Antifungal activity in vitro (resazurin susceptibility screen), Inf. E; type: cell-based; conditions: Aspergillus fumigatus B42928; 27 °C, 48 hours, resa time 17 hours; read-out: Inf. E pIC50 (converted)
Procedure, shortened: as §5

[7] = system: Scedosporium apiospermum IHEM3817; assay: Antifungal activity in vitro (resazurin susceptibility screen), Inf. H; type: cell-based; conditions: 37 °C, 48 hours, resa time 17 hours, read-out: Inf. H pIC50 (converted)
Procedure: as §4

[8] = system: Candida parapsilosis B66126; assay: Antifungal activity in vitro (resazurin susceptibility screen), Inf. D; type: cell-based; conditions: Lodderomyces parapsilosis; Candida parapsilosis B66126; 37 °C, 24 hours, resa time 4 hours; read-out: Inf. D pIC50 (converted)
Procedure, shortened: as §7

[9] = system: Rhizomucor miehei IHEM13391; assay: Antifungal activity in vitro (resazurin susceptibility screen), Inf. K; type: cell-based; conditions: 37 °C, 48 hours, resa time 17 hours, read-out: Inf. K pIC50 (converted)
Procedure: as §4

[10] = Liver metabolic stability assay, mLM; type: in vitro ADME; conditions: mouse liver microsomes, 1 mg protein/ml, 5 μM test compound, 15 min, 37 °C
Procedure: as §6

[11] = system: Trichophyton rubrum B68183; assay: Antifungal activity in vitro (resazurin susceptibility screen), Inf. C; type: cell-based; conditions: Trichophyton rubrum B68183; 27 °C, 7 days, resa time 24 hours; read-out: Inf. C pIC50 (converted)
Procedure, shortened: as §5

[12] = Liver metabolic stability assay, hLM; type: in vitro ADME, human; conditions: human liver microsomes, 1 mg protein/ml, 5 μM test compound, 15 min, 37 °C
Microsporum canis B68128 = assay: Antifungal activity in vitro (resazurin susceptibility screen), Inf. B; type: cell-based; conditions: Microsporum canis, B68128, Microsporum canis B68128; 27 °C, 9 days, resa time 24 hours; read-out: Inf. B pIC50 (converted)
Procedure, shortened: as §7

Sequence of Cytochrome P450 2C9 (P11712 whole entry): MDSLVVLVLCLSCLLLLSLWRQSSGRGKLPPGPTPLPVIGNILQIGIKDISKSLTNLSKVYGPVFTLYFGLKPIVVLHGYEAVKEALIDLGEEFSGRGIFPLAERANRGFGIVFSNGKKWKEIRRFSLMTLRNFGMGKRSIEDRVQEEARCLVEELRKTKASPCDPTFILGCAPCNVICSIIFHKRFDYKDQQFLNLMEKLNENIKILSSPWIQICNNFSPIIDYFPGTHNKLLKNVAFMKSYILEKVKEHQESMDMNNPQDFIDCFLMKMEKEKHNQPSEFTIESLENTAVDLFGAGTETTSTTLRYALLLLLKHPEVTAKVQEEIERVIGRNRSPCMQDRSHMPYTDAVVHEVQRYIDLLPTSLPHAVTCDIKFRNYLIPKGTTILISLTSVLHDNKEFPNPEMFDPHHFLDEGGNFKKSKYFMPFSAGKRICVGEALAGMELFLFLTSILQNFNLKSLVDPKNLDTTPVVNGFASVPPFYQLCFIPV
Sequence of CYP3A4/5 (P08684 2-503): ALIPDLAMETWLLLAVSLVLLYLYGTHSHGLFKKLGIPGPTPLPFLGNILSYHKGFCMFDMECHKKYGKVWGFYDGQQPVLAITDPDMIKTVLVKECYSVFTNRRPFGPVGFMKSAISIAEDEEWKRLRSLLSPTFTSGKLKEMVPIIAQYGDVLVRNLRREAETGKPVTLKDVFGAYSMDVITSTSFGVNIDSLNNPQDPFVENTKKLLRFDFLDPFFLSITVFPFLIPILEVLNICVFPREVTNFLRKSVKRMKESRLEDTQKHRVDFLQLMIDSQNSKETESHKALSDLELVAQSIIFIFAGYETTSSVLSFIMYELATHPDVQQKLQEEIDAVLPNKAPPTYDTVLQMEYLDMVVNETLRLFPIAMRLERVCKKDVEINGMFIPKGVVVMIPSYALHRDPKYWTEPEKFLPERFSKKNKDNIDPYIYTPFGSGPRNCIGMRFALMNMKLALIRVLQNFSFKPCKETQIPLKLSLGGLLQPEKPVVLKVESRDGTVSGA
Sequence of Cytochrome P450 2D6 (P10635 whole entry): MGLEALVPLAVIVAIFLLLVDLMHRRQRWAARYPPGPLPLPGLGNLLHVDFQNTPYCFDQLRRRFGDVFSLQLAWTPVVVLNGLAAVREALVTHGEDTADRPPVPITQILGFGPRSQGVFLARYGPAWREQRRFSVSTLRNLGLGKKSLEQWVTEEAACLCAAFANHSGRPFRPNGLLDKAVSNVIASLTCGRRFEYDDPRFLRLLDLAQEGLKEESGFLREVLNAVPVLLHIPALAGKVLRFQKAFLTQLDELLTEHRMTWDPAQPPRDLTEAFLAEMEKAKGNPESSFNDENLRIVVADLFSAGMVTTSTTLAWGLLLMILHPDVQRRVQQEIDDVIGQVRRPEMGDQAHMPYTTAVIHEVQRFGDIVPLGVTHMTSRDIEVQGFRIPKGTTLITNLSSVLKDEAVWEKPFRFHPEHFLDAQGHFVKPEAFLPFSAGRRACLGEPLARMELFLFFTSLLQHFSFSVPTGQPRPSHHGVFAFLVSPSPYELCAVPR
Sequence of Cytochrome P450 2C19 (P33261 whole entry): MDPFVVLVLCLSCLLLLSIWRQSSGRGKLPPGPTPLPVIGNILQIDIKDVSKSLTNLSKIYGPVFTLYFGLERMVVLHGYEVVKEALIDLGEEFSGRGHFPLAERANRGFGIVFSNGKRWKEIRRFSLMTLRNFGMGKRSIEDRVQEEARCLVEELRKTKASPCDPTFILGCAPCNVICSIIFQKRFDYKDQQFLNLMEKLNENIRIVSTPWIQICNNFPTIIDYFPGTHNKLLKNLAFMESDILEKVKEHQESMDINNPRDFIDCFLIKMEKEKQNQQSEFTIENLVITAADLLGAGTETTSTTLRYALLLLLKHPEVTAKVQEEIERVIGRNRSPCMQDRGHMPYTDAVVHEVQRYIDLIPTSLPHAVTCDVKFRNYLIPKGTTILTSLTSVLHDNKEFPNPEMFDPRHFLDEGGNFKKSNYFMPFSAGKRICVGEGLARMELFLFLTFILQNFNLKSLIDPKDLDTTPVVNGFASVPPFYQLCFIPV

SMILES: Br.CCc1ccc(C2NCc3c(Cl)cccc3-n3cccc32)cc1 (stereo not drawn)
- 1A2_Phen pIC50 (Cytochrome P450 1A2): <5.0
- IC50 (Cytochrome P450 2C19): 0.794 µM
- IC50 (Cytochrome P450 2D6): 2 µM
- IC50 (Cytochrome P450 2C9): 7.94 µM
- 2C8_Amod pIC50 (Cytochrome P450 2C8): <5.0
- IC50 at 10 min (CYP3A4/5): > 10 µM

- IC50 [1]: > 63.1 µM
- IC50 [2]: > 31.6 µM
- IC50 [3]: > 31.6 µM
- %-compound metabolised Met_gpLM [4]: 84%
- IC50 [5]: 0.251 µM
- IC50 (Rhizopus oryzae IHEM5223): > 63.1 µM
- IC50 [6]: > 31.6 µM
- melting point: 252.3 to 252.6 °C
- IC50 [7]: > 63.1 µM
- IC50 [8]: > 31.6 µM
- IC50 [9]: > 63.1 µM
- %-compound metabolised Met_mLM [10]: 70%
- IC50 [11]: 0.0398 µM
- %-compound metabolised_Met_hLM [12]: 50%
- IC50 (Microsporum canis B68128): 0.2 µM
SMILES: CC(=O)c1ccc(C2=NCc3c(Cl)cccc3-n3cccc32)cc1 [Compound 17, 1-[4-(7-chloro-6H-pyrrolo[1,2-a][1,4]benzodiazepin-4-yl)phenyl]-ethanone]
